In US12103919B2, “3-(5-oxy)-1-oxoisoindolin-2-yl)piperidine-2,6-dione derivatives and uses thereof” (NOVARTIS AG, priority 2021, dated 2024):
Where two headings read alike, the source gives them in different places.

Assays:
WIZ = target: T1, WIZ (Homo sapiens, UniProt O95785+Q96SW2); test: Quantification of WIZ protein levels in HiBit tag fusion protein assay (293T cells); type: cell-based; set-up: Dmax: dose or concentration left out as unconfirmed; conditions: for DC50: read-out: WIZ AC50
T1 construct: expressed in transfected cells
T1 sequence (O95785 whole entry, the tested form may be a part): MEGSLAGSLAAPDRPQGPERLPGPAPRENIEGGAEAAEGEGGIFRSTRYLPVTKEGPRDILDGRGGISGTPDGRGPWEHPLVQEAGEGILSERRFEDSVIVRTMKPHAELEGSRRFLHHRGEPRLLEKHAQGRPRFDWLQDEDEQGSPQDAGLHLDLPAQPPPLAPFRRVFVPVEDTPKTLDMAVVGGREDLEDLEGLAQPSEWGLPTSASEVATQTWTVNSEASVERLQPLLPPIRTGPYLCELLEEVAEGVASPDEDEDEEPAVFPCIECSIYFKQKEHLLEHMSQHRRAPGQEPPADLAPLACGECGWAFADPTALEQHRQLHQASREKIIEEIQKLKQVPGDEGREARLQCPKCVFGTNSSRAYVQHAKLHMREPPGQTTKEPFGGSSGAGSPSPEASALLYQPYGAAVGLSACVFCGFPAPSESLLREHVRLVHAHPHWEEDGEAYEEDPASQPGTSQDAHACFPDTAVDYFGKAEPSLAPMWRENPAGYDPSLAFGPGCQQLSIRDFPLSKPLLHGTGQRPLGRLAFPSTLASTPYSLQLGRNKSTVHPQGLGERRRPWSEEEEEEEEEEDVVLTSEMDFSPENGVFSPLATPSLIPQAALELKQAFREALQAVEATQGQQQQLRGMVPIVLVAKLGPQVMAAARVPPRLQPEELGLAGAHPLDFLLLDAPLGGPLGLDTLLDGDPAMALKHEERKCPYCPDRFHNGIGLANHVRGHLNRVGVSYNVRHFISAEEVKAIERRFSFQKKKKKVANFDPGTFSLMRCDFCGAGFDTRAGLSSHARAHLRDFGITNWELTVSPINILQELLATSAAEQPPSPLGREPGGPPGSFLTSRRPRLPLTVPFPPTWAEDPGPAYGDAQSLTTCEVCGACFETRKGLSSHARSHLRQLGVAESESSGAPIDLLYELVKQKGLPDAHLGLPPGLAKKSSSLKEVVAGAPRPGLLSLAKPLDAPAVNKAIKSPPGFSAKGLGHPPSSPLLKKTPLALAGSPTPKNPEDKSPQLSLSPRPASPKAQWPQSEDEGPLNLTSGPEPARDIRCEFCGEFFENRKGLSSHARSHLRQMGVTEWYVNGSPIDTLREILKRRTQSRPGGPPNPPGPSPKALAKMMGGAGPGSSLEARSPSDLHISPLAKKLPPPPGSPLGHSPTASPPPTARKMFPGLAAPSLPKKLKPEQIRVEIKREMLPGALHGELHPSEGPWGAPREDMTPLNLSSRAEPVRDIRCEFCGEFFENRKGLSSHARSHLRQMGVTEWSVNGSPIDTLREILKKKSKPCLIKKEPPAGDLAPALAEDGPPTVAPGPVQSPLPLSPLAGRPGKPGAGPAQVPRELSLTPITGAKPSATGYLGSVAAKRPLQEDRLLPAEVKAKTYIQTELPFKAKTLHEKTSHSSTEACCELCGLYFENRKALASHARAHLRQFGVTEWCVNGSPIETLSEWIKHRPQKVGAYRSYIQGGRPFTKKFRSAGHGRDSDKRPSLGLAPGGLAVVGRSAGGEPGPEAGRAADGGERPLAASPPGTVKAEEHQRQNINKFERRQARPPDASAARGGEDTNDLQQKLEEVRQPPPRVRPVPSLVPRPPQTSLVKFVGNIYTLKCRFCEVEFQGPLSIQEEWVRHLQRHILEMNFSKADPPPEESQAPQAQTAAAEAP
T1 sequence (Q96SW2 whole entry, the tested form may be a part): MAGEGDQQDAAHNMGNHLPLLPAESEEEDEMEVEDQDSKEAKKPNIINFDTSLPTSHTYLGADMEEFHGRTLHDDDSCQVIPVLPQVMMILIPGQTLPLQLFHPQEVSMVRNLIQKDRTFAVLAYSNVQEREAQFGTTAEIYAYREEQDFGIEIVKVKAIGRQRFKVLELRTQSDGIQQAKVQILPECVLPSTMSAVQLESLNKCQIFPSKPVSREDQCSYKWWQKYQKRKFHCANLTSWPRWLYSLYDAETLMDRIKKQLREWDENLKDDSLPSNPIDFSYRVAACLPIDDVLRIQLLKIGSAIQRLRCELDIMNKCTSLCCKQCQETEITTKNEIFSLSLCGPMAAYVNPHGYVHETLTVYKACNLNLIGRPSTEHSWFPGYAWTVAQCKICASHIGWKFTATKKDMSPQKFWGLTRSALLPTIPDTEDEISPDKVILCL
T1 sequence (Q16531 whole entry partner, the tested form may be a part): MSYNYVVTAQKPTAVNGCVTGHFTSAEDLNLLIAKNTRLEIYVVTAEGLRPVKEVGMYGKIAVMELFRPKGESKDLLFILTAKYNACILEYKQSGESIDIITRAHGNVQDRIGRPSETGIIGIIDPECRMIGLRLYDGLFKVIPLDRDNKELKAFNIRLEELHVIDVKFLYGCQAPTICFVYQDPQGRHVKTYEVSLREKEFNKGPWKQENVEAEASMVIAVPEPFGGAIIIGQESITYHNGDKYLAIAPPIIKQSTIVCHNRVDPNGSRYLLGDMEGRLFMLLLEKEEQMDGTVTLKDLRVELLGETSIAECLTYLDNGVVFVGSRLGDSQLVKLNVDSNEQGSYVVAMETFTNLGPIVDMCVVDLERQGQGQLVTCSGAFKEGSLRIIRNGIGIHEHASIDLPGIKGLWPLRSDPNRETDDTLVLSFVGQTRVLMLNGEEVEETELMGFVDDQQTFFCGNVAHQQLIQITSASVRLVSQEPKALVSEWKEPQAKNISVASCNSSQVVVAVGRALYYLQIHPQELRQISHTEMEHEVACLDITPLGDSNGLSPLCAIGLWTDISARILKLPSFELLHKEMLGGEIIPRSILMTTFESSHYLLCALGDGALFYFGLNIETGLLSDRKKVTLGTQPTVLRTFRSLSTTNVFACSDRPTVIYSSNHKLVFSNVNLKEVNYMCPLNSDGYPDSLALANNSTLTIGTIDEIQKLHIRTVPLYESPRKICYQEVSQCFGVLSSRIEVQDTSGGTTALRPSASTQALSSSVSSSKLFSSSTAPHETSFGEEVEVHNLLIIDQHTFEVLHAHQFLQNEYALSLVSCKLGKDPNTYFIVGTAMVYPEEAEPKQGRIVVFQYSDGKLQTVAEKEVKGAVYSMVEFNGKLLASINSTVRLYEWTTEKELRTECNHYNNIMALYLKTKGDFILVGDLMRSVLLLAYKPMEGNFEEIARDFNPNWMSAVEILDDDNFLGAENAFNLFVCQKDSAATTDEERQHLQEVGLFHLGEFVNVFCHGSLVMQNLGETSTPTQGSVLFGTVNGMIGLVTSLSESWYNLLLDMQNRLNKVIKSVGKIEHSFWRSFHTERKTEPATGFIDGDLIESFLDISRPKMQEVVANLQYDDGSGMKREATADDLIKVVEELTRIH
Summary of the method: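 293T cells stably carrying a single-copy HiBit-WIZ fusion were exposed to compounds for about 18 hours at 37° C., top concentration 25 μM, 10-point 5-fold series. Lysates were complemented with LgBit and luminescence was read. Amax is the DMSO-normalized, curve-fitted percentage of WIZ-HiBit remaining at 25 uM.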

Fetal Hemoglobin (HbF) = test: Small molecule HbF induction assay in erythroid-differentiated mPB CD34+ cells (flow cytometry); type: cell-based, human; conditions: highest percentage of cells staining positive for HbF (% HbF+ cells) in fitted dose-response curve; DMSO baseline approximately 30-40%
Procedure: Cryopreserved primary human CD34^+ hematopoietic stem and progenitor cells were obtained from AllCeIIs, LLC. The CD34^+ cells were isolated from the peripheral blood of healthy donors after mobilization by administration of granulocyte colony-stimulating factor. Cells were differentiated ex vivo toward the erythroid lineage using a 2-phase culture method. In the first phase, cells were cultured in Stemspan™ Serum-Free Expansion Media (SFEM) ([…] Technologies Inc.) supplemented with rhSCF (50 ng/mL, Peprotech®, Inc.), rhlL-6 (50 ng/mL, Peprotech®, Inc.), rhlL-3 (50 ng/mL, Peprotech®, Inc.), and rhFlt3L (50 ng/mL, Peprotech®, Inc.), and 1× antibiotic-antimycotic (Life Technologies, Thermo Fisher Scientific) for 6 days at 37° C. with 5% CO2. During the second phase, cells were cultured in erythroid differentiation media at 5,000 cells/mL in the presence of compound for 7 days at 37° C. with 5% […]. Erythroid Differentiation Media is comprised of IMDM (Life Technologies) supplemented with insulin (10 μg/mL. Sigma Aldrich), heparin (2 U/mL Sigma Aldrich), holo-transferrin (330 μg/mL, Sigma Aldrich), human serum AB (5%, Sigma Aldrich), hydrocortisone (1 μM, […] Technologies), rhSCF (100 ng/mL, Peprotech®, Inc.), rhIL-3 (5 ng/mL. Peprotech®, Inc.), rhEPO (3 U/mL, Peprotech®, Inc.), and 1× antibiotic-antimycotic. All compounds were dissolved and diluted into dimethylsulfoxide (DMSO) and were added to culture media for a final concentration of 0.3% DMSO for testing in a 10-point, 1:3 dilution series starting at 10 uM.
For viability analysis, samples were washed and resuspended in phosphate-buffered saline (PBS) and stained with LlVE/DEAD™ Fixable Violet Dead Cell Stain Kit (Life Technologies, L34963) for 20 minutes. Cells were then washed again with PBS and resuspended in PBS supplemented with 2% fetal bovine serum (FBS), and 2 mM EDTA to prepare for cell surface marker analysis. […]
mPB CD34+ cells were expanded for 6 days, then erythroid differentiated in the presence of compound for 7 days. Cells were fixed, stained and analyzed by flow cytometry. […]

Q: How did the Dmax (WIZ; HEK-293T, read-out: % degradation of WIZ (100 − Amax)) turn out when `CCN1CCC[C@@H](Oc2ccc3c(c2)CN(C2CCC(=O)NC2=O)C3=O)C1` (mixture of isomers) [Example 1, 3-(5-(((R)-1-ethylpiperidin-3-yl)oxy)-1-oxoisoindolin-2-yl)piperidine-2,6-dione] was run?
A: 76%

Q: What about the remaining activity at 25 µM (WIZ; HEK-293T, read-out: WIZ Amax) of the same molecule?
A: 24%

Q: And the DC50 (WIZ; WIZ HiBit assay in 293T cells, about 18 hours, 10-point 5-fold dilution, top 25 μM)?
A: 16 nM

Q: And the DC50 (WIZ; updated arithmatic mean over the number of repeats specified, assay of Example 89)?
A: 16 nM

Q: What about the “HbF Amax” value (Fetal Hemoglobin (HbF)) of the same molecule?
A: 66.5%
